From US8455475B2 (Gruenenthal GmbH, priority 2009, dated 2013)

Key:
[1] = biological target: T1, human B1R (bradykinin receptor 1) (Homo sapiens, UniProt P46663); test: FLIPR Ca2+ assay (Fluo-4) on CHO K1 cells stably transfected with the human B1R gene (hB1R cells): % inhibition at 10 μM / IC50, agonist Lys-Des-Arg9-bradykinin; assay type: cell-based; conditions: for inhibition at 10 µM: CHO-K1, human B1R
T1 construct: expressed in transfected cells; host or cells: CHO K1 cells
T1 sequence (P46663 1-353): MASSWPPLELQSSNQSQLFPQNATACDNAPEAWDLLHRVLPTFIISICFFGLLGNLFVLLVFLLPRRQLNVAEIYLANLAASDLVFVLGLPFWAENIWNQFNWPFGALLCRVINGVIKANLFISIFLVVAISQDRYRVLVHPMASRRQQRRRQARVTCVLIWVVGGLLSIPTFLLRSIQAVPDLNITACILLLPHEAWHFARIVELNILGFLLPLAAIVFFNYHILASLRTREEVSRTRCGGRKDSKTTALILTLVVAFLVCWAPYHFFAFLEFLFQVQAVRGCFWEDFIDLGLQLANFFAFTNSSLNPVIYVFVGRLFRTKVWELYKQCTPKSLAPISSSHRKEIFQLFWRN
Description: The agonistic or antagonistic action of substances can be quantified on the bradykinin receptor 1 (B1R) of the human and rat species with ectopically expressing cell lines (CHO K1 cells) and with the aid of a Ca^2+-sensitive dyestuff (Fluo-4) in a fluorescent imaging plate reader (FLIPR). The figure in % activation is based on the Ca^2+ signal after addition of Lys-Des-Arg^9-bradykinin (0.5 nM) or Des-Arg^9-bradykinin (100 nM). Antagonists lead to a suppression of the Ca^2+ inflow after addition of the agonist. % inhibition compared with the maximum achievable inhibition is stated.
The agonistic or antagonistic action of substances can be determined on the bradykinin receptor 1 (B1R) of the human and rat species with the following assay. In accordance with this assay, the Ca^2+ inflow through the channel is quantified with the aid of a Ca^2+-sensitive dyestuff (type Fluo-4, Molecular Probes Europe BV, Leiden, Holland) in a fluorescent imaging plate reader (FLIPR, Molecular Devices, Sunnyvale, USA).
Chinese hamster ovary cells (CHO K1 cells) transfected stably with the human B1R gene (hB1R cells) or the B1R gene of the rat (rB1R cells) are used. For functional studies, these cells are plated out on black 96-well plates with a clear base (BD Biosciences, Heidelberg, Germany or Greiner, Frickenhausen, Germany) in a density of 20,000-35,000 cells/well. The cells are left overnight at 37° C. and 5% CO2 in culture medium (hB1R cells: Nutrient Mixture Ham's F12, Gibco Invitrogen GmbH, Karlsruhe, Germany or DMEM, Sigma-Aldrich, Taufkirchen, Germany; rB1R cells: D-MEM/F12, Gibco Invitrogen GmbH, Karlsruhe, Germany) with 10 vol. % FBS (foetal bovine serum, Gibco Invitrogen GmbH, Karlsruhe, Germany or PAN Biotech GmbH, Aidenbach, Germany). On the following day, the cells are loaded for 60 min at 37° C. with 2.13 μM Fluo-4 (Molecular Probes Europe BV, Leiden Holland) in HBSS buffer (Hank's buffered saline solution, Gibco Invitrogen GmbH, Karlsruhe, Germany) with 2.5 mM probenecid (Sigma-Aldrich, Taufkirchen, Germany) and 10 mM HEPES (Sigma-Aldrich, Taufkirchen, Germany). The plates are then washed 2× with HBSS buffer, and HBSS buffer which additionally contains 0.1% BSA (bovine serum albumin; Sigma-Aldrich, Taufkirchen, Germany), 5.6 mM glucose and 0.05% gelatine (Merck KGaA, Darmstadt, Germany) is added. After a further incubation of 20 minutes at room temperature, the plates are inserted into the FLIPR for the Ca^2+ measurement. Alternatively, the plates are washed with buffer A (15 mM HEPES, 80 mM NaCl, 5 mM KCl, 1.2 mM CaCl2, 0.7 mM MgSO4, 2 g/l glucose, 2.5 mM probenecid), buffer A is added and the plates are loaded with 2.5 μM Fluo-4 and 0.025% Pluronic F127 (Sigma-Aldrich, Taufkirchen, Germany). Thereafter, the cells are washed 2× with buffer A and incubated for 30 minutes at room temperature with buffer A, which additionally contains 0.05% BSA and 0.05% gelatine, and thereafter inserted into the FLIPR for the Ca^2+ measurement. The Ca^2+-dependent fluorescence is measured here before and after addition of substances (λex=488 nm, λem=540 nm). Quantification is by measurement of the highest fluorescence intensity (FC, fluorescence counts) over time.
The FLIPR protocol consists of 2 additions of substance. Test substances (10 μM) are first pipetted on to the cells and the Ca^2+ inflow is compared with the control (hB1R: Lys-Des-Arg^9-bradykinin>=50 nM; rB1R: Des-Arg^9-bradykinin 10 μM). This gives the result in % activation based on the Ca^2+ signal after addition of Lys-Des-Arg^9-bradykinin (>=50 nM) or Des-Arg^9-bradykinin (10 μM). After incubation for 10-20 minutes, Lys-Des-Arg^9-bradykinin (hB1R) or Des-Arg^9-bradykinin (rB1R) in the concentration of the EC80 is applied and the inflow of Ca^2+ is likewise determined. Antagonists lead to a suppression of the Ca^2+ inflow. % inhibition compared with the maximum achievable inhibition is calculated.
For determination of the IC50 value, the substances are added in various concentrations. […]

[2] = biological target: T2, rat B1R (bradykinin receptor 1) (Rattus norvegicus, UniProt P97583); test: FLIPR Ca2+ assay (Fluo-4) on CHO K1 cells stably transfected with the B1R gene of the rat (rB1R cells): % inhibition at 10 μM / IC50, agonist Des-Arg9-bradykinin; assay type: cell-based; conditions: for inhibition at 10 µM: CHO-K1, rat B1R
T2 construct: expressed in transfected cells; host or cells: CHO K1 cells
T2 sequence (P97583 1-337): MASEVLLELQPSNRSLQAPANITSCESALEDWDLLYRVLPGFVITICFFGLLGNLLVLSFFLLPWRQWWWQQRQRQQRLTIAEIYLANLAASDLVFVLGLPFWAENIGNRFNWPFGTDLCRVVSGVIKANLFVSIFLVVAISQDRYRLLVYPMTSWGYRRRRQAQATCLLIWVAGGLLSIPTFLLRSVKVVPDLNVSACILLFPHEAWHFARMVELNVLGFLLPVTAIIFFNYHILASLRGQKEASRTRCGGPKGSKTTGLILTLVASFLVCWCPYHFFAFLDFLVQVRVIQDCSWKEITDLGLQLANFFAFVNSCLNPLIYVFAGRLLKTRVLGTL
Outline: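 Loading with Fluo-4 occurs for 60 min at 37 °C, or alternatively in buffer A, before FLIPR measurement. Compounds are applied, incubated 10–20 min, and then the EC80 agonist is added. Antagonism appears as reduced peak Ca2+ signal relative to maximal inhibition.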

With “2-Chloro-N-[2,2-dimethyl-6-(9-pyridin-4-yl-3,9-diazaspiro[5.5]undecane-3-carbonyl)-1,3-dihydro-inden-1-yl]-3-(trifluoromethyl)-benzamide [IND_CC-234]” the “% Inhibition (human B1R) at 10 μM” value [1] was 85% and the “% Inhibition (rat B1R) at 10 μM” value [2] was 99%.
“2-Chloro-N-[6-(2-pyridin-4-yl-2,8-diazaspiro[4.5]decane-8-carbonyl)-2,3-dihydro-1H-inden-1-yl]-6-(trifluoromethyl)-benzamide [IND_CC-205]” was tested, and the “% Inhibition (human B1R) at 10 μM” value [1] was 100% and the “% Inhibition (rat B1R) at 10 μM” value [2] was 103%.
`O=C(c1ccc2c(c1)C(N1Cc3cccc(Cl)c3C1=O)CC2)N1CCC2(CC1)CCN(c1ccncc1)CC2` (centres unmarked) [Example H-01, 7-chloro-2-[6-(9-pyridin-4-yl-3,9-diazaspiro[5.5]undecane-3-carbonyl)-2,3-dihydro-1H-indan-1-yl]-2,3-dihydro-isoindol-1-one] was tested, and the inhibition at 10 µM [1] was 100% and the inhibition at 10 µM [2] was 97%.
`O=C(NC1CCc2ccc(C(=O)N3CCC4(CC3)CCN(c3ccncc3)CC4)cc21)c1ccccc1Cl` (centres unmarked) [Example H-02, 2-chloro-N-[6-(3-pyridin-4-yl-3,9-diazaspiro[5.5]undecane-9-carbonyl)-2,3-dihydro-1H-inden-1-yl]-benzamide] was tested, and the “% Inhibition (human B1R) at 10 μM” value ([1]; 10 µM) was 100% and the “% Inhibition (rat B1R) at 10 μM” value ([2]; 10 µM) was 100%.
In the case of `COc1cc(C)c(S(=O)(=O)NC2CCc3ccc(C(=O)N4CCC5(CC4)CCN(c4ccncc4)CC5)cc32)c(C)c1` (centres unmarked) [Example H-03, 4-methoxy-2,6-dimethyl-N-[6-(9-pyridin-4-yl-3,9-diazaspiro[5.5]undecane-3-carbonyl)-2,3-dihydro-1H-inden-1-yl)-benzenssulfonic acid amide], the “% Inhibition (human B1R) at 10 μM” value ([1]; 10 µM) is reported as 98% and the “% Inhibition (rat B1R) at 10 μM” value ([2]; 10 µM) is reported as 104%.
`O=C(NC1CCc2ccc(C(=O)N3CCC4(CCN(c5ccncc5)C4)C3)cc21)c1ccccc1Cl` (centres unmarked) [Example H-04, 2-chloro-N-[6-(8-pyridin-4-yl-3,8-diazaspiro[4.4]nonane-3-carbonyl)-2,3-dihydro-1H-inden-1-yl]-benzamide] gave an inhibition at 10 µM [1] of 100% and an inhibition at 10 µM [2] of 106%.
`O=C(NC1CCc2ccc(C(=O)N3CCC4(CCN(c5ccncc5)CC4)C3)cc21)c1ccccc1Cl` (centres unmarked) [Example H-05, 2-chloro-N-[6-(8-pyridin-4-yl-3,8-diazaspiro[4.5]decane-3-carbonyl)-2,3-dihydro-1H-inden-1-yl]-benzamide] was tested, and the “% Inhibition (human B1R) at 10 μM” value [1] was 100% and the “% Inhibition (rat B1R) at 10 μM” value ([2]; 10 µM) was 105%.
For `O=C(NC1CCc2ccc(C(=O)N3CCC4(CCC(N5CCC5)CC4)CC3)cc21)c1ccccc1Cl` (centres unmarked) [Example H-06, N-[6-[9-(azetidin-1-yl)-3-azaspiro[5.5]undecane-3-carbonyl)-2,3-dihydro-1H-indan-1-yl]-2-chloro-benzamide], the inhibition at 10 µM [1] was 60% and the inhibition at 10 µM [2] was 98%.
Work on `O=C(NC1CCc2ccc(C(=O)N3CCC4(CCC(N5CC(F)(F)C5)CC4)CC3)cc21)c1ccccc1Cl` (centres unmarked) [Example H-07, 2-chloro-N-[6-[9-(3,3-difluoro-azetidin-1-yl)-3-azaspiro[5.5]undecane-3-carbonyl]-2,3-dihydro-1H-inden-1-yl]-benzamide] yielded an inhibition at 10 µM [1] of 34% and an inhibition at 10 µM [2] of 69%.
`O=C(NC1CCc2ccc(C(=O)N3CCC4(CCC(Oc5ccncc5)CC4)CC3)cc21)c1ccccc1Cl` (centres unmarked) [Example H-08] showed an inhibition at 10 µM [1] of 71% and an inhibition at 10 µM [2] of 100%.
`O=C(N[C@@H]1CCCc2ccc(C(=O)N3CCC4(CC3)CCN(c3ccncc3)CC4)cc21)c1ccccc1Cl` [Example H-09, 2-chloro-N-[(1R)-7-(9-pyridin-4-yl-3,9-diazaspiro[5.5]undecane-3-carbonyl)-1,2,3,4-tetrahydro-naphthalen-1-yl]-benzamide] gave an inhibition at 10 µM [1] of 100% and an inhibition at 10 µM [2] of 102%.
Work on `O=C(N[C@H]1CCCc2ccc(C(=O)N3CCC4(CC3)CCN(c3ccncc3)CC4)cc21)c1ccccc1Cl` [Example H-10, 2-chloro-N-[(1S)-7-(9-pyridin-4-yl-3,9-diazaspiro[5.5]undecane-3-carbonyl)-1,2,3,4-tetrahydro-naphthalen-1-yl]-benzamide] yielded an inhibition at 10 µM [1] of 49% and an inhibition at 10 µM [2] of 103%.
For `O=C(N[C@@H]1CCCc2ccc(C(=O)N3CCC4(CCN(c5ccncc5)CC4)C3)cc21)c1ccccc1Cl` [Example H-11, 2-chloro-N-[(1R)-7-(8-pyridin-4-yl-3,8-diazaspiro[4.5]decane-3-carbonyl]-1,2,3,4-tetrahydro-naphthalen-1-yl]-benzamide], the inhibition at 10 µM [1] was 99% and the inhibition at 10 µM [2] was 103%.
`O=C(N[C@H]1CCCc2ccc(C(=O)N3CCC4(CCN(c5ccncc5)CC4)C3)cc21)c1ccccc1Cl` [Example H-12, 2-chloro-N-[(1S)-7-(8-pyridin-4-yl-3,8-diazaspiro[4.5]decane-3-carbonyl]-1,2,3,4-tetrahydro-naphthalen-1-yl]-benzamide] showed an inhibition at 10 µM [1] of 97% and an inhibition at 10 µM [2] of 102%.
`O=C(c1ccc2c(c1)[C@H](N1Cc3cccc(Cl)c3C1=O)CCC2)N1CCC2(CCN(c3ccncc3)CC2)C1` [Example H-13, 7-chloro-2-[(1R)-7-(8-pyridin-4-yl-3,8-diazaspiro[4.5]decane-3-carbonyl)-1,2,3,4-tetrahydro-naphthalen-1-yl]-2,3-dihydro-isoindol-1-one] gave an inhibition at 10 µM [1] of 100% and an inhibition at 10 µM [2] of 101%.
`O=C(c1ccc2c(c1)[C@H](N1Cc3cccc(Cl)c3C1=O)CCC2)N1CCC2(CC1)CCN(c1ccncc1)CC2` [Example H-14, 7-chloro-2-[(1R)-7-(9-pyridin-4-yl-3,9-diazaspiro[5.5]undecane-3-carbonyl)-1,2,3,4-tetrahydro-naphthalen-1-yl]-2,3-dihydro-isoindol-1-one] was tested, and the inhibition at 10 µM [1] was 91% and the inhibition at 10 µM [2] was 101%.
